# How the values were obtained:
# A. baumannii = conditions: cited from earlier work
# P. aeruginosa = conditions: cited from earlier work
# [1] = Chlorhexidine free base saturation in methanol; assay type: physicochemical; conditions: CHX/methanol solutions
# Excerpt: Solution was made with […] chlorhexidine free base (CHX) in methanol. CHX/methanol solutions appeared to reach saturation around 1000 ppm. Serial dilutions were made from the solution, where the UV-Vis would become overloaded when concentrations were above 200 ppm. In order to avoid overloading the UV-Vis, concentrations below 100 ppm were used to collect absorbance values. FIG. 8 and Table 6 show the absorbance data collected from the chlorhexidine free base standards.
smiles,measurement,setting,value
[H]/N=C(\N/C(=N/[H])NCCCCCCNC(=N)NC(=N)Nc1ccc(Cl)cc1)Nc1ccc(Cl)cc1 [chlorhexidine],largest known minimum inhibitory concentration (MIC),A. baumannii,64 µg/mL
same,largest known minimum bactericidal concentration (MBC),P. aeruginosa,128 µg/mL
same,saturation concentration in methanol,[1],around 1000 ppm
